{"source": "patent US7943584B2", "about": "“Medicinal composition containing diabetes remedy” (Sankyo Company, Limited, priority 2004, dated 2011)", "molecular_target": "T1, human pancreatic α-amylase (HPA) (Homo sapiens, UniProt P04746)", "T1 construct": "purchased International Reagents Co., Ltd. Calibzyme AMY", "T1 sequence (P04746 16-511)": "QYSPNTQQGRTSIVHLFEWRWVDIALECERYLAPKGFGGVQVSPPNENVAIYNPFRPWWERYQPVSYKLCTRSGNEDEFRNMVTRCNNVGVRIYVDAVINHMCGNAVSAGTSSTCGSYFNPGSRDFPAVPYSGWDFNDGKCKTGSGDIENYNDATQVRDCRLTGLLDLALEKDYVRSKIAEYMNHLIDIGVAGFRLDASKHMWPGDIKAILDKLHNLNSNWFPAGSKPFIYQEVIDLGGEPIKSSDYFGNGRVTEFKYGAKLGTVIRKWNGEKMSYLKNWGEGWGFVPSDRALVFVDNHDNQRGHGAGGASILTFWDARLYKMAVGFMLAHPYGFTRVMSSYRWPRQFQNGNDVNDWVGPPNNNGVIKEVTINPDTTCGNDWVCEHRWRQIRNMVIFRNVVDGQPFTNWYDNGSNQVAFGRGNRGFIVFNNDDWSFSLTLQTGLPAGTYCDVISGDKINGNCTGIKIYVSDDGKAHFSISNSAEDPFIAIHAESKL", "assay": "α-Amylase inhibitory action (Blue Starch, Neo Amylase Test)", "assay_type": "biochemical", "settings": "final concentration required for 50% inhibition of HPA solution, 37° C.", "protocol": "α-Amylase Inhibitory Action\n(1) Preparation of Human α-Amylase Solution\nCalibzyme AMY (International Reagents Co., Ltd.) was used for the human pancreatic α-amylase (HPA). Distilled water was added to the commercially available HPA and dissolved to a concentration of 200 IU/l to prepare the α-amylase solution. The activity of the α-amylase was measured using a commercially available α-amylase assay reagent (Neo Amylase Test Daiichi, Daiichi Pure Chemicals Co., Ltd.).\n(2) Preparation of Inhibitory Solutions\nEach test compound was prepared with distilled water to a final concentration of 0.1 to 30 μg/ml.\n(3) Measurement of Human α-Amylase Inhibitory Activity of Inhibitory Solutions\nAfter incubating for 10 minutes at 37° C., a Blue Starch tablet (Neo Amylase Test Daiichi, Daiichi Pure Chemicals Co., Ltd.) was added followed by stirring for about 10 seconds with a mixer, and the mixture was then heated for 30 minutes at 37° C. […] In addition, a mixture to which distilled water was added instead of α-amylase solution was used as a blank.", "data": [{"smiles": "COC[C@H]1O[C@@H](O[C@H]2[C@H](O)[C@@H](O)C(O[C@H]3[C@H](O)CN[C@@H]3CO)O[C@@H]2CO)[C@H](O)[C@@H](O)[C@@H]1O", "note": "(stereo partly drawn) [Reference Example 8, (2R,3R,4R)-4-Hydroxy-2-hydroxymethylpyrrolidin-3-yl 4-O-(6-methoxy-6-deoxy-β-D-glucopyranosyl)-D-glucopyranoside]", "values": [{"measurement": "IC50", "result": 848, "unit": "nM"}]}]}
